One molecule from PMC6443244 (Cell chemical biology, 2016) can be followed below.

The test deals with Fatty acid synthase (FASN) (Homo sapiens, UniProt P49327). The experiment in a line: […]malonyl-CoA incorporation into fatty acids by purified FASN. In kind it is biochemical.
Chain of Fatty acid synthase (FASN) (P49327 whole entry): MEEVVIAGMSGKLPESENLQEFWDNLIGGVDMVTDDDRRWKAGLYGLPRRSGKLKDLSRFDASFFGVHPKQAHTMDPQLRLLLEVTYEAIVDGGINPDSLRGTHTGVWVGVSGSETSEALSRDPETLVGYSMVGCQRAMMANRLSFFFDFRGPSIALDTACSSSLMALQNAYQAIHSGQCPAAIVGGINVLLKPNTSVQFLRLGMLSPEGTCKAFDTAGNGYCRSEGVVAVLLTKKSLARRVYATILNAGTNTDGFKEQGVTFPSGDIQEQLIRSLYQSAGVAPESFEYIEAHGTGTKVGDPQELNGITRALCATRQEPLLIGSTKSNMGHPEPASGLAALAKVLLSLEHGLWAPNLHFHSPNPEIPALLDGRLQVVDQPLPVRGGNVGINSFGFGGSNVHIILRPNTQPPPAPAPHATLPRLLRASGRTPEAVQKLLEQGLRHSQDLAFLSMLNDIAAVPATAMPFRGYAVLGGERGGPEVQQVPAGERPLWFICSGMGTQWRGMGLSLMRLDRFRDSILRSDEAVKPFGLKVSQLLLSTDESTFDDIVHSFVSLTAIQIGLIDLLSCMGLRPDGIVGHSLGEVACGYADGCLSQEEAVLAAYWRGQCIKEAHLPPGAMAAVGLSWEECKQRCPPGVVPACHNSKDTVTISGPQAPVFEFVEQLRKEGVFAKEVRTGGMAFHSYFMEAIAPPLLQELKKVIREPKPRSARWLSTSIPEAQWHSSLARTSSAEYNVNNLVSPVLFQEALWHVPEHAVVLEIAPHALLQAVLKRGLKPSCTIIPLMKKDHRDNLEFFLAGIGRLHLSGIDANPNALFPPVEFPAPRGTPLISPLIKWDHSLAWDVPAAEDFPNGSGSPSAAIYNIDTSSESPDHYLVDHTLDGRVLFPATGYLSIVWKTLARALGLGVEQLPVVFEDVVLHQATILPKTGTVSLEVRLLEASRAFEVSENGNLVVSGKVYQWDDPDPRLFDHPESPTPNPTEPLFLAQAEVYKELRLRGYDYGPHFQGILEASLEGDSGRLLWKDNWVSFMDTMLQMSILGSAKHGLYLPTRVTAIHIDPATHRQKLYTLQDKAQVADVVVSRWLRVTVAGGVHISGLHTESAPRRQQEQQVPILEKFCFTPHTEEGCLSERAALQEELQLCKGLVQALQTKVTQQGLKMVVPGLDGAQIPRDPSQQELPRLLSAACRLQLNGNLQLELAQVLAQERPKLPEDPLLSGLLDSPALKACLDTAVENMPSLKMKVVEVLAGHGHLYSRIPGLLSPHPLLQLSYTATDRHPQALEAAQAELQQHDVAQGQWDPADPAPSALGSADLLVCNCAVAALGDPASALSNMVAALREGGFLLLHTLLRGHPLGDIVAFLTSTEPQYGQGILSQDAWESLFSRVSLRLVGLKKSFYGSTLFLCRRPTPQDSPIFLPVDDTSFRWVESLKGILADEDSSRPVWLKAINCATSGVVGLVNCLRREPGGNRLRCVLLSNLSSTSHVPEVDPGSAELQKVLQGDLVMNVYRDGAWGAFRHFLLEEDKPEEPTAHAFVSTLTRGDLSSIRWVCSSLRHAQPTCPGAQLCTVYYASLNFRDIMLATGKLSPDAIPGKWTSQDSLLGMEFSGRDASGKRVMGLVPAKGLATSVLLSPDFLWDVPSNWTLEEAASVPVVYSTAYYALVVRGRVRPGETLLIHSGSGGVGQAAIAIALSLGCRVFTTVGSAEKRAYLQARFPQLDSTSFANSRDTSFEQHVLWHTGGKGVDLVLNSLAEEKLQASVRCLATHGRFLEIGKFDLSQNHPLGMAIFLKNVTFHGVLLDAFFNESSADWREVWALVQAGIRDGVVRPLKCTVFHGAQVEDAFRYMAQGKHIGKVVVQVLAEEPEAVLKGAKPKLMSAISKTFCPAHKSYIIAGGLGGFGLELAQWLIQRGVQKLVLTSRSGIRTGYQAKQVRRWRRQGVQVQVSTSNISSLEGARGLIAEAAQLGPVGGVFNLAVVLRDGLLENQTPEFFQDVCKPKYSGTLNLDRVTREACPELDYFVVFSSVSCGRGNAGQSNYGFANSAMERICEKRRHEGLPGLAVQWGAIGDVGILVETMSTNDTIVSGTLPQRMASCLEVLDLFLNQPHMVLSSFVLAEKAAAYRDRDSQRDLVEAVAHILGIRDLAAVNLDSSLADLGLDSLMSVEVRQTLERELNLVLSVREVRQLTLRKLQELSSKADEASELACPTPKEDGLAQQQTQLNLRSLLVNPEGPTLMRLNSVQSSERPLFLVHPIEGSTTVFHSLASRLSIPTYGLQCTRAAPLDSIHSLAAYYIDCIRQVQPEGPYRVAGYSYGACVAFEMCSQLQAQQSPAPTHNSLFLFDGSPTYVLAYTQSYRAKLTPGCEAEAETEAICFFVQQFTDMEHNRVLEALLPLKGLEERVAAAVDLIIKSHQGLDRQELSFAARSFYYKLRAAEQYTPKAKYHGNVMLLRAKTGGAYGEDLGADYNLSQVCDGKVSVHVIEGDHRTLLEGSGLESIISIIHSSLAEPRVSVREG

For `Cc1sc2ncnc(NC3CCN(Cc4ccccc4)C3)c2c1C` (stereo not shown) [Fasnall], half-maximal inhibition (IC50) was put at 3.71 µM. In other words, the single-digit micromolar range.
